How the values were obtained:
A549 (K-RAS G12S) cells = assay: MTT cell viability assay, 72 h; format: cell-based; conditions: Homo sapiens
Protocol: (§1) A549 (K-RAS^G12S), H358 (K-RAS^G12C), H2122 (K-RAS^G12C) and CCD19-Lu cells were obtained from the American Type Culture Collection and cultured in an environment of 5% CO2 at 37° C. in RPMI-1640 medium supplemented with 10% fetal bovine serum (FBS), 100 units/mL penicillin, and 100 μg/mL streptomycin.
(§2) 3000 cells were seeded on 96-well plates, cultured overnight for cell adhesion, then treated with DMSO or various concentrations of compound of Formula (VII) for 72 h, at the end of the incubation, each well was added with 10 μL of MTT (5 mg/mL; Sigma), and the plates were incubated for an additional 4 h, then the crystals were dissolved in 100 μL of the resolved solution (10% SDS and 0.1 mM HCL). The absorbance at 570 nm was measured using a microplate reader (Tecan, Morrisville, N.C., USA). The cell viability was calculated relative to untreated controls, with results based on at least three independent experiments. […] The IC50 in CCD19-Lu is more than 20 μM (Table 1).

H2122 (K-RAS G12C) cells = assay: MTT cell viability assay, 72 h; format: cell-based; conditions: Homo sapiens, NCI-H2122
Protocol: as §1, §2

H358 (K-RAS G12C) cells = assay: MTT cell viability assay, 72 h; format: cell-based; conditions: Homo sapiens, NCI-H358
Protocol: as §1, §2

[1] = tested on: normal lung epithelial cells (CCD19-Lu); assay: MTT cell viability assay, 72 h; format: cell-based; conditions: Homo sapiens, CCD 19Lu
Protocol: as §1, §2

A549 cells [2] = assay: Annexin V-FITC/PI apoptosis assay by flow cytometry; format: cell-based; conditions: A549, 2.5 μM, 5 μM or 10 μM, 48 h, compared with control group
Protocol: Apoptosis was measured using the Annexin V-FITC apoptosis detection kit (BD Biosciences, San Jose, Calif., USA), according to the manufacturer protocol. […] Subsequently, cells were trypsinized, washed with PBS and stained with 100 μL binding buffer containing 2 μL Annexin-V FITC and 5 μL propidine iodide (PI) incubated in the dark at room temperature for 15 min, before further addition of 400 μL of 1× Annexin-binding buffer. The stained cells were analyzed quantitatively using a Flow Cytometer (BD Biosciences, San Jose, Calif., USA). Data were analyzed by Flow Jo software.

A549 cells [3] = assay: Colony formation assay; format: cell-based; conditions: 10 days
Protocol: Still further, the inhibitory effect of the compound of Formula (VII) on the colony formation in A549 cells has been analyzed to provide further evidence that the compound of Formula (VII) inhibits the formation of colonies of cancerous cells to an exceptional degree, too. A549 cells were seeded on a six-well plate at a density of 500 cells per well. […] After 10 days, the colonies were fixed with 4% paraformaldehyde and stained with a 0.5% (0.5% w/v) crystal violet solutions, the number of colonies >50 was counted under a dissecting microscope.

[4] = tested on: p-C-raf, pErk, pAkt in A549 cells; assay: Western blot of signaling pathways downstream to K-RAS; format: cell-based; conditions: A549, 2.5 μM, 5 μM and 10 μM, compared with untreated cells
Protocol: Equal amounts of protein (20-40 μg per lane) were separated with a 10% SDS-PAGE gel, then the separated proteins were transferred to a Nitrocellulose (NC) membrane, which was then exposed to 5% non-fat dry milk in TBS containing 0.1% Tween 20 (0.1% TBST) for 1 hour at room temperature with constant agitation, followed by overnight incubation at 4° C. with primary antibodies, after washing three times by TBST, the membranes were incubated with secondary rabbit or mouse fluorescent antibodies, the signal intensity of the membranes was detected by anLI-COR Odessy scanner (Belfast, Me., USA). All primary antibodies were diluted 1:1000, while their recommended secondary antibodies were diluted 1:10000.

[5] = tested on: active (GTP-bound) K-RAS in A549 cells; assay: K-RAS activation (GTP pull down) assay with immunoblotting; format: cell-based
Protocol: Further, a K-RAS activation assay with subsequent immunoblotting has been carried out. […] Cells were lysed in lysis buffer, adjusted the volume of each sample to 1 mL with 1× Assay Lysis Buffer, 40 μL of the Raf1 RBD Agarose bead slurry were added to each sample quickly, follow by incubating the tubes at 4° C. for 1 hour with gentle agitation, beads were washed three times with cold lysis buffer, and bounded protein was resuspended in 40 μL of 2× reducing SDS-PAGE sample buffer and heated at 100° C. for 5 min. The samples were then run by SDS-PAGE followed by immunoblotting. Total amount of RAS being pulled down were compared between the control and treatment groups.
The compound of Formula (VII) inhibited K-RAS binding to GTP in A549 cells.

[6] = tested on: human pancreatic ductal adenocarcinoma cells; conditions: in vitro and in vivo; cited from earlier work

Row | IC50 (A549 (K-RAS G12S) cells) [µM] | IC50 (H2122 (K-RAS G12C) cells) [µM] | IC50 (H358 (K-RAS G12C) cells) [µM] | Structure (SMILES) | IC50 [1] [µM] | cell apoptosis (A549 cells [2]) | colony formation capacity (A549 cells [3]; A549, 1.25 μM, 2.5 μM, 5 μM or 10 μM) | colonies formed (A549 cells [3]; A549, 10 μM) | level of p-C-raf [4] | level of pAkt [4] | level of pErk [4] | amount of K-RAS being pulled down (GTP-bound K-RAS) ([5]; A549, 10 μM, 48 h, compared to untreated control) | GTP binding with K-RAS ([5]; A549, 4 μM, positive control) | proliferation of human pancreatic ductal adenocarcinoma cells [6]
1 | 5.59 ± 1.27 | 3.35 ± 2.74 | 2.4 ± 2.1 | CC(C)(C)c1cc2oc3c(c2c(/C=N/NC(=O)c2ccc(O)cc2O)c1O)CCCC3 [compound of Formula (VII)] | > 20 | induced significant cell apoptosis | significantly inhibited | no visible colonies | decreased | decreased | decreased | caused a decrease |  | 
2 |  |  |  | c1ccc(Cn2c(-c3ccc(OC[C@H](C4CCNCC4)n4c(-c5ccccc5)nc5ccccc54)cc3)nc3ccccc32)cc1 [Deltarasin, reference compound] |  |  |  |  |  |  |  |  | suppression | strongly suppressed

Source: patent US20170135979A1, “PDE-DELTA INHIBITOR FOR THE TREATMENT OF CANCER” (Macau University of Science and Technology, priority 2015, published 2017)
